In US9512111B2, “N-sulfonylated tetrahydroquinolines and related bicyclic compounds for inhibition of RORγ activity and the treatment of disease” (Lycera Corporation, priority 2010, dated 2016):

The molecules below were run against T1, RORγ-LBD (Homo sapiens, UniProt P51449) (assay: RORγ-Ligand Binding Domain TR-FRET Assay). Conditions: Table 8, indazoles.
T1 construct: HIS-tagged RORγ-LBD was recombinantly expressed in SF9 cells; made in house; host or cells: SF9 cells (baculovirus); unpurified lysate
T1 sequence (P51449 269-508 limits assumed): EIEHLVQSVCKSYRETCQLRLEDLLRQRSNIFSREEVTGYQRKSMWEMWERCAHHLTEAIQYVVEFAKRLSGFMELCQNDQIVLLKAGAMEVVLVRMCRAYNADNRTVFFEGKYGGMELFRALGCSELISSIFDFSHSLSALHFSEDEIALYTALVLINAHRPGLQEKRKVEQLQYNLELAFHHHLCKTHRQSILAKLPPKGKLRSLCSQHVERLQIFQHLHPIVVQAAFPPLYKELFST
Assay type: biochemical
Method: HIS-tagged RORγ-LBD was recombinantly expressed in SF9 cells using a baculovirus expression system. The protein was not purified. Cells were lysed and the lysate was used as a source for RORγ-LBD for the assay. A 1:80 dilution of RORγ-LBD lysate in assay buffer (25 mM HEPES pH 7.0, 100 mM NaCl, 0.01% Tween, 0.1% BSA) was prepared and 5 μL was added to each well (RORγ-LBD final concentration ˜10 nM). Control wells received lysate from SF9 cells not expressing RORγ-LBD.
Compounds to be tested were diluted to 100× final test concentration in DMSO and further diluted to 4× final test concentration using assay buffer to provide the test compound mixture. An aliquot (5 μL) of the test compound mixture was added to each well.
A 4× stock of biotinylated-LXXLL peptide from SRC1-2 (Biotin-[…]) was prepared in assay buffer and a 5 μL aliquot added to each well (450 nM final concentration). A 4× solution of europium tagged anti-HIS antibody (2 nM final concentration) and APC conjugated streptavidin (60 nM final concentration) were prepared and a 5 μL aliquot added to each well.
The final assay mixture was incubated for 4 hours to overnight, and the fluorescence signal was measured on an Envision plate reader: (Excitation filter=340 nm; APC emission=665 nm; Europium emission=615 nm; dichroic mirror=D400/D630; delay time=100 μs, integration time=200 μs).
IC50 values for test compounds were calculated from the quotient of the fluorescence signal at 665 nm divided by the fluorescence signal at 615 nm using GraphPad Prism software.

IC50, < 15 µM:
O=C(Nc1ccc2c(C(O)CO)nn(S(=O)(=O)c3cccc(C(F)(F)F)c3)c2c1)c1c(F)cccc1Cl (stereo not shown) [Compound 10, 2-Chloro-N-[3-(1,2-dihydroxyethyl)-1-(3-trifluoromethylbenzenesulfonyl)-1H-indazol-6-yl]-6-fluorobenzamide]
O=C(Nc1ccc2cnn(S(=O)(=O)c3cccc(OC(F)(F)F)c3)c2c1)c1c(Cl)cccc1C(F)(F)F [Compound V-41]
Cc1ccc(S(=O)(=O)n2ncc3ccc(NC(=O)c4c(F)cccc4Cl)cc32)cc1 [Compound V-158]
CC(C)(C)c1cccc(S(=O)(=O)n2ncc3ccc(NC(=O)c4c(Cl)cccc4C(F)(F)F)cc32)c1 [Compound V-34]
COc1ccccc1S(=O)(=O)n1ncc2ccc(NC(=O)c3c(F)cccc3Cl)cc21 [Compound V-111]
O=C(Nc1ccc2cnn(S(=O)(=O)Cc3ccc(C(F)(F)F)cc3)c2c1)c1c(Cl)cccc1C(F)(F)F [Compound V-38]
Cn1cc(S(=O)(=O)n2ncc3ccc(NC(=O)c4c(F)cccc4Cl)cc32)cn1 [Compound V-112]
O=C(Nc1ccc2cnn(S(=O)(=O)c3cccc(OC(F)F)c3)c2c1)c1c(Cl)cccc1C(F)(F)F [Compound V-35]
COc1cccc(S(=O)(=O)n2ncc3ccc(NC(=O)c4c(Cl)cccc4C(F)(F)F)cc32)c1 [Compound V-40]
Cc1nn(C(F)F)cc1S(=O)(=O)n1ncc2ccc(NC(=O)Cc3ccc(F)cc3)cc21 [Compound V-22]
Cc1nn(C(F)F)cc1S(=O)(=O)n1ncc2ccc(NC(=O)Cc3ccc(F)c(F)c3)cc21 [Compound V-17]
O=C(Nc1ccc2cnn(S(=O)(=O)c3ccccc3OC(F)(F)F)c2c1)c1c(F)cccc1Cl [Compound V-130]
Cc1ccccc1CS(=O)(=O)n1ncc2ccc(NC(=O)c3c(F)cccc3Cl)cc21 [Compound V-119]
COc1cccc(S(=O)(=O)n2ncc3ccc(NC(=O)Cc4ccc(F)cc4)cc32)c1 [Compound V-26]
CC(=O)c1cccc(S(=O)(=O)n2ncc3ccc(NC(=O)Cc4cnc(C)s4)cc32)c1 [Compound V-4]
O=C(Nc1ccc2cnn(S(=O)(=O)c3ccc(Cl)cc3)c2c1)c1c(F)cccc1Cl [Compound V-156]
Cc1cccc(S(=O)(=O)n2nc(Br)c3ccc(NC(=O)c4c(F)cccc4Cl)cc32)c1 [Compound V-52]
COc1cccc(S(=O)(=O)n2ncc3ccc(NC(=O)c4c(Cl)cccc4Cl)cc32)c1 [Compound V-73]
CC(=O)Nc1ccc(S(=O)(=O)n2ncc3ccc(NC(=O)c4c(F)cccc4Cl)cc32)cc1Cl [Compound V-149]
Cc1cccc(S(=O)(=O)n2ncc3ccc(NC(=O)c4c(F)cccc4C(F)(F)F)cc32)c1 [Compound V-46]
COC(=O)c1ccc(S(=O)(=O)n2ncc3ccc(NC(=O)c4c(F)cccc4Cl)cc32)cc1 [Compound V-109]
Cc1ccc(F)cc1S(=O)(=O)n1ncc2ccc(NC(=O)c3c(F)cccc3Cl)cc21 [Compound V-165]
CC(C)(C)c1cccc(S(=O)(=O)n2ncc3ccc(NC(=O)Cc4ccc(F)cc4)cc32)c1 [Compound V-23]
COc1ccc(S(=O)(=O)n2ncc3ccc(NC(=O)c4c(F)cccc4Cl)cc32)cc1F [Compound V-164]
COc1cccc(S(=O)(=O)n2ncc3ccc(NC(=O)c4c(F)cccc4F)cc32)c1 [Compound V-62]
O=C(Nc1ccc2cnn(S(=O)(=O)c3ccc(OC(F)(F)F)cc3)c2c1)c1c(F)cccc1Cl [Compound V-153]
O=C(Nc1ccc2cnn(S(=O)(=O)c3cccc(OC(F)F)c3)c2c1)c1c(F)cccc1C(F)(F)F [Compound V-45]
Cc1cccc(S(=O)(=O)n2ncc3ccc(NC(=O)c4c(Cl)cccc4C(F)(F)F)cc32)c1 [Compound V-37]
Cc1cc(F)ccc1S(=O)(=O)n1ncc2ccc(NC(=O)c3ccc(F)cc3Cl)cc21 [Compound V-77]
Cc1ccc(C)c(S(=O)(=O)n2ncc3ccc(NC(=O)c4c(F)cccc4Cl)cc32)c1 [Compound V-117]
CC(=O)c1cccc(S(=O)(=O)n2ncc3ccc(NC(=O)Cc4ccc(F)c(F)c4)cc32)c1 [Compound V-19]
Cc1ncc(CC(=O)Nc2ccc3cnn(S(=O)(=O)c4cccc(C(C)(C)C)c4)c3c2)s1 [Compound V-2]
Cc1cccc(S(=O)(=O)n2nc(-c3ccc(C(=O)O)cc3)c3ccc(NC(=O)c4c(F)cccc4Cl)cc32)c1 [Compound V-10]
C=Cc1nn(S(=O)(=O)c2cccc(C(F)(F)F)c2)c2cc(NC(=O)c3c(F)cccc3Cl)ccc12 [Compound 9, 2-Chloro-6-fluoro-N-[1-(3-trifluoromethylbenzenesulfonyl)-3-vinyl-1H-indazol-6-yl]benzamide]
Cc1cccc(S(=O)(=O)n2ncc3ccc(NC(=O)c4c(F)cccc4F)cc32)c1 [Compound V-60]
O=C(Nc1ccc2cnn(S(=O)(=O)c3cccc(C(F)(F)F)c3)c2c1)c1c(Cl)cccc1Cl [Compound V-75]
O=C(Nc1ccc2cnn(S(=O)(=O)c3ccc(F)c(C(F)(F)F)c3)c2c1)c1c(Cl)cccc1C(F)(F)F [Compound V-33]
O=C(Nc1ccc2cnn(S(=O)(=O)c3cccc(Cl)c3)c2c1)c1c(F)cccc1Cl [Compound V-53]
CC(=O)c1cccc(S(=O)(=O)n2ncc3ccc(NC(=O)c4c(Cl)cccc4C(F)(F)F)cc32)c1 [Compound V-36]
Cc1ccc(S(=O)(=O)n2ncc3ccc(NC(=O)c4c(F)cccc4Cl)cc32)c(F)c1 [Compound V-118]
O=C(Nc1ccc2cnn(S(=O)(=O)c3ccc(Br)cc3)c2c1)c1c(F)cccc1Cl [Compound V-98]
O=C(Nc1ccc2cnn(S(=O)(=O)Cc3ccccc3)c2c1)c1c(F)cccc1Cl [Compound V-155]
O=C(Nc1ccc2cnn(S(=O)(=O)Cc3ccc(C(F)(F)F)cc3)c2c1)c1c(Cl)cccc1Cl [Compound V-71]
Cc1cccc(F)c1C(=O)Nc1ccc2cnn(S(=O)(=O)c3cccc(C(F)(F)F)c3)c2c1 [Compound V-1]
COc1cccc(S(=O)(=O)n2ncc3ccc(NC(=O)Cc4cnc(C)s4)cc32)c1 [Compound V-7]
O=C(Nc1ccc2cnn(S(=O)(=O)c3ccc(F)c(C(F)(F)F)c3)c2c1)c1c(F)cccc1F [Compound V-56]
CCc1ccc(S(=O)(=O)n2ncc3ccc(NC(=O)c4c(F)cccc4Cl)cc32)cc1 [Compound V-116]
Cc1nc(C)c(S(=O)(=O)n2ncc3ccc(NC(=O)c4c(F)cccc4Cl)cc32)s1 [Compound V-89]
Cc1ncc(CC(=O)Nc2ccc3cnn(S(=O)(=O)c4cccc(Cl)c4)c3c2)s1 [Compound V-6]

Same assay, conditions: benzoxazines, Table 9

IC50, < 15 µM:
C[C@H]1CN(S(=O)(=O)c2cccc(C#N)c2)c2cc(NC(=O)c3c(F)cccc3Cl)ccc2O1 [VI-6]
O=C(Nc1ccc2c(c1)N(S(=O)(=O)c1ccc(F)cc1)CC(C(F)(F)F)O2)c1c(F)cccc1Cl (stereo not shown) [VI-117]
C[C@H]1CN(S(=O)(=O)c2ccc(F)cc2)c2cc(NC(=O)c3c(Cl)cccc3Cl)ccc2O1 [VI-18]
N#Cc1cccc(S(=O)(=O)N2C[C@@H](CO)Oc3ccc(NC(=O)Cc4ccc(F)cc4)cc32)c1 [VI-58]
C[C@H]1CN(S(=O)(=O)c2ccc(F)cc2)c2cc(NC(=O)C(C)(C)c3ccc(Cl)cc3)ccc2O1 [VI-135]
CCNCC1CN(S(=O)(=O)c2ccc(F)cc2)c2cc(NC(=O)c3c(F)cccc3Cl)ccc2O1 (stereo not shown) [VI-34]
C[C@H]1CN(S(=O)(=O)c2cccc(C#N)c2)c2cc(NC(=O)c3c(Cl)cccc3C(F)(F)F)ccc2O1 [VI-5]
C[C@H]1CN(S(=O)(=O)c2cccc(C#N)c2)c2cc(NC(=O)c3c(Cl)cccc3Cl)ccc2O1 [VI-3]
O=C(Cc1ccc(Cl)cc1)Nc1ccc2c(c1)N(S(=O)(=O)c1ccc(Cl)cc1)C[C@@H](CO)O2 [VI-50]
C[C@H]1CN(S(=O)(=O)c2cccc(C#N)c2)c2cc(NC(=O)c3c(F)cccc3F)ccc2O1 [VI-2]
O=C(Nc1ccc2c(c1)N(S(=O)(=O)c1ccc(F)cc1)CC(C(F)(F)F)O2)c1c(F)cccc1F (stereo not shown) [VI-111]
O=C(Nc1ccc2c(c1)N(S(=O)(=O)c1ccc(Cl)cc1)C[C@@H](CO)O2)c1c(F)cccc1F [VI-55]
